9 compounds from PubChem BioAssay (NCI) can be followed below.

Test systems include SF-539 CNS; BT-549 breast; TK-10 renal; HS 578T breast; HCT-15 colon; MDA-MB-231 breast; SF-268 CNS; RPMI-8226 leukemia; EKVX NSCLC; SK-MEL-5 melanoma.
Common to all, as to experiment: growth of human tumour cells (NCI), 48 h

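Cells were grown in 96-well plates and exposed to each compound for 48 hours at five concentrations; endpoints were interpolated linearly between bracketing concentrations, or set to the highest concentration if not reached. Abbreviation: GI50, concentration required for 50% inhibition of growth. The concentration for full growth arrest is given as TGI.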

Turning to `NC1=C(Cl)C(=O)c2ccc(S(N)(=O)=O)cc2C1=O`, the GI50 in the test with SF-539 CNS is 0.2 µM; in the test on BT-549 breast it was 0.171 µM; with TK-10 renal it was 1.56 µM; in the test on HS 578T breast, 0.126 µM; in the test with HCT-15 colon it was 0.164 µM; in the test with MDA-MB-231 breast, 0.332 µM. Further, the GI50 in the test on SF-268 CNS was 0.372 µM; in the test with RPMI-8226 leukemia, 0.354 µM; in the test on EKVX NSCLC, 1.53 µM; in the test on SK-MEL-5 melanoma, 0.0304 µM. For the same compound, the TGI came to 0.379 µM in the test on SF-539 CNS; 0.314 µM with BT-549 breast; 2.95 µM in the test with TK-10 renal; 0.339 µM in the test on HCT-15 colon; 2.7 µM in the test with MDA-MB-231 breast; 1.22 µM with SF-268 CNS. In addition, the TGI was found to be 2.04 µM with RPMI-8226 leukemia, 2.91 µM in the test on EKVX NSCLC and 0.0963 µM with SK-MEL-5 melanoma.
Turning to `NC(CNO)C(=O)O` (stereo not given), the TGI in the test with SF-539 CNS, with BT-549 breast, in the test on TK-10 renal, in the test on HS 578T breast, with HCT-15 colon and in the test with MDA-MB-231 breast was over 100 µM in each case. For the same compound, the TGI with SF-268 CNS, in the test with RPMI-8226 leukemia, in the test on EKVX NSCLC and in the test on SK-MEL-5 melanoma was over 100 µM in each case.
`O=C1C(=O)c2ccccc2-c2ccccc21`: the GI50 in the test on SF-539 CNS is 1.6 µM; with BT-549 breast it was 1.66 µM; with TK-10 renal, 1.82 µM; in the test on HS 578T breast it was 3.14 µM; with HCT-15 colon, 1.05 µM; with MDA-MB-231 breast, 1.42 µM. Also, the GI50 with SF-268 CNS is 1.61 µM; in the test with RPMI-8226 leukemia it was 0.583 µM; in the test with EKVX NSCLC it was 1.81 µM; with SK-MEL-5 melanoma, 1.39 µM. The TGI in the test with SF-539 CNS came to 2.99 µM; with BT-549 breast, 3.07 µM; in the test on TK-10 renal it was 3.3 µM; in the test with HS 578T breast it was 9.86 µM; with HCT-15 colon it was 2.92 µM; in the test with MDA-MB-231 breast, 3.19 µM. In addition, the TGI in the test on SF-268 CNS amounted to 3.15 µM; in the test with RPMI-8226 leukemia it was 2.79 µM; with EKVX NSCLC, 3.25 µM; in the test on SK-MEL-5 melanoma it was 2.79 µM.
Regarding `N#CC(=S)Nc1ccc(Cl)c(Cl)c1`, the TGI was 48.5 µM with SF-539 CNS; over 55.1 µM in the test on BT-549 breast; over 84.6 µM with TK-10 renal; over 100 µM in the test with HS 578T breast; 49.6 µM with HCT-15 colon; 43.4 µM in the test on MDA-MB-231 breast. For the same compound, the TGI is over 94.5 µM in the test on SF-268 CNS, 13.4 µM with RPMI-8226 leukemia, 61.1 µM in the test with EKVX NSCLC and over 51.3 µM with SK-MEL-5 melanoma. In addition, in the test with HS 578T breast, the GI50 was 11.3 µM.
As to `O=C(O)C1NCCc2c1[nH]c1ccccc21` (stereo not given), the GI50 in the test with SF-539 CNS, in the test on TK-10 renal, in the test on HCT-15 colon, in the test with SF-268 CNS and in the test with SK-MEL-5 melanoma was over 100 µM in each case. The TGI in the test on SF-539 CNS was over 100 µM; with BT-549 breast, over 10 µM; with TK-10 renal, over 100 µM; in the test with HS 578T breast, over 10 µM; in the test with HCT-15 colon it was over 100 µM; with MDA-MB-231 breast it was over 10 µM. The TGI was over 100 µM with SF-268 CNS, over 10 µM in the test on RPMI-8226 leukemia, over 100 µM with EKVX NSCLC and over 100 µM in the test on SK-MEL-5 melanoma.
In the case of `Cc1cccc2c(N=Nc3ccc(S(N)(=O)=O)cc3)c(O)[nH]c12`, the GI50 in the test on SF-539 CNS, in the test on BT-549 breast, with TK-10 renal, with HS 578T breast, with HCT-15 colon and in the test on MDA-MB-231 breast was over 25 µM throughout. The GI50 with SF-268 CNS, with RPMI-8226 leukemia, with EKVX NSCLC and in the test on SK-MEL-5 melanoma was over 25 µM throughout. Also, the TGI in the test with SF-539 CNS, in the test on BT-549 breast, with TK-10 renal, in the test with HS 578T breast, in the test on HCT-15 colon and with MDA-MB-231 breast was over 25 µM in each case. Further, the TGI in the test with SF-268 CNS, with RPMI-8226 leukemia, in the test on EKVX NSCLC and in the test on SK-MEL-5 melanoma was over 25 µM in each case.
With `Clc1cc(Cl)c(Cl)c(-c2nc(-c3cccnc3)cs2)c1`, the GI50 in the test on SF-539 CNS was 10.7 µM; in the test on BT-549 breast, 20.6 µM; in the test on TK-10 renal it was 20.5 µM; with HS 578T breast, 18.6 µM; in the test with HCT-15 colon it was 16 µM; in the test on MDA-MB-231 breast, 53 µM. Besides, the GI50 with SF-268 CNS was 17.9 µM; in the test with RPMI-8226 leukemia, 17.9 µM; in the test with EKVX NSCLC it was 40.2 µM; in the test on SK-MEL-5 melanoma it was 23.6 µM. In addition, the TGI was 25.4 µM in the test on SF-539 CNS; 70.2 µM with BT-549 breast; 56.6 µM in the test on TK-10 renal; 55.5 µM in the test on HS 578T breast; 42.5 µM in the test on HCT-15 colon; over 100 µM in the test on MDA-MB-231 breast. The TGI with SF-268 CNS was 69.8 µM; in the test with RPMI-8226 leukemia it was 80.8 µM; with EKVX NSCLC it was over 100 µM; in the test on SK-MEL-5 melanoma it was over 100 µM.
Consider `Cc1n[nH]c(=S)n1/N=C/c1ccc(F)c(Oc2ccccc2)c1`, for which the GI50 with SF-539 CNS is 27.7 µM; in the test on BT-549 breast, 63.7 µM; with TK-10 renal it was 43.9 µM; with HS 578T breast, 33.2 µM; in the test on HCT-15 colon, 49.7 µM; in the test on MDA-MB-231 breast it was 41.2 µM. Moreover, the GI50 was 28.4 µM with SF-268 CNS, 42.7 µM in the test with RPMI-8226 leukemia, 32.8 µM with EKVX NSCLC and 16.1 µM in the test on SK-MEL-5 melanoma. Besides, the TGI was 65.1 µM in the test on SF-539 CNS; over 100 µM in the test with BT-549 breast; over 100 µM with TK-10 renal; over 100 µM in the test on HS 578T breast; over 100 µM with HCT-15 colon; over 100 µM in the test on MDA-MB-231 breast. For the same compound, the TGI in the test with SF-268 CNS was over 100 µM; with RPMI-8226 leukemia, over 100 µM; in the test with EKVX NSCLC, 99.4 µM; in the test on SK-MEL-5 melanoma it was 33.4 µM.
As to `Cc1cc(C)c(O)c(Cc2cccc(Cc3cc(C)cc(C)c3O)c2O)c1`, the TGI in the test with SF-539 CNS, in the test on BT-549 breast, in the test on TK-10 renal, in the test with HS 578T breast, in the test on HCT-15 colon and with MDA-MB-231 breast was over 100 µM in each case. Moreover, the TGI with SF-268 CNS, in the test on RPMI-8226 leukemia, in the test with EKVX NSCLC and in the test with SK-MEL-5 melanoma was over 100 µM throughout.
